Patent publication US6710083B2, “Method of treating palmar and plantar fibromatosis” (priority 2002, dated 2004)

What was measured:
[1] = Side effects, tolerability and laboratory values during the clinical treatment of palmar fibromatosis patients; assay type: in vivo, human
Protocol: (§1) Example 1 to 3 illustrate clinical effectiveness of the above described treatment method. An initial treatment and a maintenance treatment as described above were prescribed to the patients. It is noted that the patients described in the Examples were in the average weight range, therefore, an average dosage of 40 mg was used.
(§2) The patient was treated with orally administering Accutane® (Hoffmann-La Roche Inc., Nutley, New Jersey) about 40 mg daily for 14 days. Then the dosage was decreased to a maintenance dosage of 40 mg about twice a week for twelve months.
(§3) The patient was treated with orally administering Accutane® about 40 mg daily for 14 days. Then the dosage was decreased to 40 mg about twice a week for eight months.
(§4) The patient was placed on Accutane® 40 mg daily for two weeks.

[2] = tested on: palmar fibromatosis (Dupuytren's contracture); experiment: Clinical treatment of patients with palmar fibromatosis (Dupuytren's contracture) with oral Accutane: initial dosage then maintenance dosage; assay type: in vivo, human
Protocol: as §1, §2, §3, §4

[3] = Example 2 patient, eight months of therapy

## CC1=C(/C=C/C(C)=C/C=C/C(C)=C\C(=O)O)C(C)(C)CCC1 [Accutane, 13-cis retinoic acid]
[1]; Example 1 patient, 40 mg daily 14 days, then 40 mg about twice a week for twelve months
  adverse side effects: No adverse side effects were noted other than drying of lips
[1]; Example 1 patient, low maintenance dosage
  blood chemistries: remained normal
[1]; [3]
  laboratory abnormality: No laboratory abnormality was observed
  musculoskeletal pain: some musculoskelatal pain, which diminished after the third month of the treatment
[1]; Example 2 patient, lower maintenance dosage
  tolerability: well tolerated
[1]; patients diagnosed with Dupytren's contracture, described treatment (general statement)
  serious adverse side effects: no serious adverse side effects were observed
[2]; Example 1 patient, both hands, after twelve months of therapy
  dimple overhead of the third methocarpal bone: disappeared
[2]; Example 1 patient, middle finger, 4 mm before treatment, 40 mg daily 14 days, then 40 mg about twice a week, after twelve months
  fibrotic band, right hand: 2 mm
[2]; Example 1 patient, middle finger, oral 40 mg daily for 14 days, then 40 mg about twice a week, after twelve months
  fibrotic band, left hand: completely disappeared
[2]; Example 1 patient, patient-described, after twelve months of therapy
  pain and tenderness in the flexor tendon area of the hands: completely abated
[2]; Example 1 patient, 7 degree before treatment as printed, after twelve months of therapy
  range of fixed flexion of the left middle finger: none
[2]; Example 1 patient, fixed 15 degree before treatment as printed, after twelve months of therapy
  fixed flexion of the right middle finger: 3 degree
[2]; Example 2 patient, advanced disease, 40 mg daily 14 days, then 40 mg about twice a week for eight months
  fibrotic ridge of the left hand: reduced in scope and size
[2]; Example 2 patient, left hand, about 90 degree before treatment, eight months of therapy
  ring finger's disposition from the flexed position: about 70 degree
[2]; Example 2 patient, patient-reported, eight months of therapy
  tenderness of the left hand caused by the contracture: less tender
[2]; Example 3 patient, patient-described, nine months of treatment
  tenderness in the flexor tendon area: less tenderness
[2]; Example 3 patient, right hand, 40 mg daily two weeks, then 40 mg about twice a week for nine months
  thickness of the fibrotic band: reduced
[2]; Example 3 patient, right hand, nine months of treatment
  restriction of extension of the ring finger: lessened
[2]; Example 3 patient, 30 degree before treatment, nine months of treatment
  deflection of the right hand ring finger: 20 degree
[2]; patients with either early stage disease or advanced conditions (general statement)
  further progression of the contracture: inhibits further progression of the contracture
